Results reported in PMC4026310 (Drug Design, Development and Therapy, 2014).

Experiments:
P-gp = settings: patients receiving quinidine (P-gp inhibitor) treatment; cited from earlier work
liver = test: In situ liver perfusion; type: in vivo, Sprague Dawley rats; settings: rat in situ liver perfusion, within 120 minutes

Row | SMILES | Patients showing an obvious increase in the blood concentration of digoxin (P-gp) [%] | Effect of inhibitor on the elimination rate of periplocin in the perfusate (liver)
1 | C=C[C@H]1C[N@@]2CC[C@H]1C[C@@H]2[C@@H](O)c1ccnc2ccc(OC)cc12 [quinidine] | 90 | –
2 | CO[C@H]1/C=C/O[C@@]2(C)Oc3c(C)c(O)c4c(O)c(c(/C=N/N5CCN(C)CC5)c(O)c4c3C2=O)NC(=O)/C(C)=C\C=C\[C@H](C)[C@H](O)[C@@H](C)[C@@H](O)[C@@H](C)[C@H](OC(C)=O)[C@@H]1C [rifampicin] | – | significantly reduced
